Results from US20020111373A1, “Hydrochloride salt of a fused heterocyclic compound” (SANKYO COMPANY, LIMITED, priority 1999, published 2002).
Values after ≈ are worked out from the molar mass of the structure shown.

What was measured:
[1] = Solubility experiment in 1st fluid of Japanese Pharmacopeia; type: physicochemical; details: 37° C.; for solubility at 1 h: pH 1.2, simulated gastric fluid, thermodynamic from solid, 40 mg in 200 ml 1st fluid of Japanese Pharmacopeia, HPLC, read-out: Solubility 1.0 hour later
Method: To 200 ml of the 1st fluid of Japanese Pharmacopeia (1000 ml solution made by mixing 2.0 g of sodium chloride with 7.0 ml of hydrochloric acid and water) were added 40 mg of Compound A or Compound B, and the mixture was stirred with a stirrer at 37° C. in a 300 ml conical beaker. One hour later, 10 ml of the sample were filtered through Acrodisk LC13 (PVDF, manufactured by German Science Co.). The initial 3 ml were discarded, and the following 7 ml were taken into a test tube. Of this sample, 5 ml were taken accurately with a whole pipette and added to 2 ml of methanol accurately measured in advance in a test tube.
The quantity was measured by HPLC and the solubility was decided from a calibration curve made according to the following procedure.
The calibration curve was made by preparing a methanolic standard solution of Compound A at a concentration of 400 μg/ml, 100 μg/ml and 20 μg/ml, mixing each 2 ml of the standard solution with 5 ml of the 1st fluid of Japanese Pharmacopeia and determined by HPLC.
Analytical column: L-column ODS (4.6 mm ID×15 cm, manufactured by Chemicals Evaluation Research Institute Japan)
Mobile phase: 0.01 mol/L acetic acid buffer solution (pH 5.0)/acetonitrile mixture (13:7)
Flow rate: about 1.0 ml/min.
Column temperature: 40° C.
Detector: ultraviolet absorptiometer (measuring wavelength: 290 nm)

[2] = tested on: spontaneously diabetic rats (ZDF/Gmi-fa/fa); test: Blood sugar lowering activity test in spontaneously diabetic rats; type: in vivo, rat; details: for Blood Sugar Level: male ZDF/Gmi-fa/fa rats, average of 6
Method: Male spontaneously diabetic rats (ZDF/Gmi-fa/fa) which were 8-10 weeks old were used.
The test compound was suspended in 0.5% CMC solution, and a dose of 0.33 mg/ml/kg was orally administered consecutively for 2 weeks under compulsion. The blood sugar level was measured in a conventional manner. Thus, the tail end (about 1 mm) of rat was cut, and the blood was collected with a hematocrit tube treated with heparin for anti-coagulation and centrifuged. The resultant plasma was measured with Glucoloader F (A&T).

[3] = 3 Days, 0.33 mg/ml/kg orally, consecutive dosing
[4] = 7 Days, 0.33 mg/ml/kg orally, consecutive dosing
[5] = 14 Days, 0.33 mg/ml/kg orally, consecutive dosing

Row | SMILES | solubility (comparison in words) ([1]; from Table 2, 1st fluid of Japanese Pharmacopeia) | solubility at 1 h [1] | Blood Sugar Level ([2]; 0 Hour (baseline)) | Blood Sugar Level [2, 3] | Blood Sugar Level [2, 4] | Blood Sugar Level [2, 5] | hypoglycemic activity (comparison in words) ([2]; from Table 1, ZDF/Gmi-fa/fa rats, 0.33 mg/ml/kg orally for 2 weeks)
1 | COc1ccc2nc(COc3ccc(CC4SC(=O)NC4=O)cc3)n(C)c2c1.Cl (stereo not drawn) [Compound A, 5-[4-(6-methoxy-1-methyl-1H-benzimidazol-2-ylmethoxy)benzyl]thiazolidin-2,4-dione hydrochloride] | markedly better solubility than Compound B | 86.4 µg/mL | 456 mg/dL | 228 mg/dL | 206 mg/dL | 207 mg/dL | more excellent hypoglycemic activity than Compound B
2 | COc1ccc2nc(COc3ccc(CC4SC(=O)NC4=O)cc3)n(C)c2c1 (stereo not drawn) [Compound B, 5-[4-(6-methoxy-1-methyl-1H-benzimidazol-2-ylmethoxy)benzyl]-thiazolidin-2,4-dione, reference compound] | – | 41 µg/mL (≈ 103 µM) | 456 mg/dL | 379 mg/dL | 409 mg/dL | 535 mg/dL | –
